Results from US8211463B2, “Use of glycolipids as adjuvants” (Helmholtz-Zentrum Fuer Infektionsforschung GmbH, priority 2006, dated 2012).
Entries after “also recorded” stand apart in the source; their conditions may differ.

Experiments:
[1] = tested on: IFNγ, IL-2 and IL-4 secreting splenocytes; assay: Elispot of cytokine-secreting splenocytes (IFNγ, IL-2, IL-4); format: in vivo, Balb/c mice; details: for spot forming units (SFU) secreting IFNγ / spot forming units (SFU) secreting IFNγ / cytokine secretion: i.n.; for spot forming units (SFU) secreting IFNγ / secretion of IFNγ, IL-2 and IL-4 (SFU) vs β-Gal alone: 10 μg glycolipid; for spot forming units (SFU) secreting IFNγ: MHC class I restricted β-Gal peptide 2 μg/ml, 24 h; for spot forming units (SFU) secreting IFNγ / cytokine secretion / secretion of IFNγ, IL-2 and IL-4 (SFU) vs control animals: 20 up to 30 μg glycolipid; for secretion of IFNγ, IL-2 and IL-4 (SFU) vs β-Gal alone / secretion of IFNγ, IL-2 and IL-4 (SFU) vs control animals: s.c. (parenteral)
Method: Co-administration of β-Gal with 10 μg glycolipids 1, 5 and 6 induced a strong cellular immune responses and enhanced levels of IFNγ, IL-2 and IL-4 in response to enhanced concentration of the β-Gal antigen in Balb/c mice. Balb/c mice were immunized by the i.n. or s.c. route with β-Gal alone or together with glycolipids 1, 5 and 6 three times at 2-wk intervals. 10 days after the final immunization, the immunized mice were sacrificed. Splenocytes of mice immunized by the i.n. (FIG. 12) and s.c. (FIG. 13) route were collected and cultured with different concentrations of the antigen. A total of 5×10^6 cells/ml spleen cells were cultured with 2 μg/ml of the MHC cI.I restricted β-Gal peptide (IFNγ) for 24 h and the β-Gal-Protein (IL-2 and 4) for 48 h. IFNγ producing CD8+ T cells were analyzed using BD Elispot kit according to the manufacturer's instructions. […] Bars represent Spot forming units of 10^6 splenocytes with subtracted background mean SFU±SE in each group. Each group consists of five mice. Data are representative of three separate experiments.
Co-administration of β-Gal with 20 up to 30 μg glycolipids 5 and 6 induced strong cellular immune responses and enhanced levels of IFNγ, IL-2 and IL-4 in response to enhanced concentration of the β-Gal antigen in Balb/c mice. Balb/c mice were immunized by the i.n. or s.c. route with β-Gal alone or together with glycolipids 5 and 6 three times at 2-wk intervals. 10 days after the final immunization, the immunized mice were sacrificed. Splenocytes of mice immunized by the i.n. (FIG. 14) and s.c. (FIG. 15) route were collected and cultured with different concentrations of. A total of 5×10^6 cells/ml spleen cells were cultured with 2 μg/ml of the MHC class I restricted β-Gal peptide (IFNγ) for 24 h and the β-Gal-Protein (IL-2 and 4) for 48 h. IFNγ producing CD8+ T cells were analyzed using BD Elispot kit according to the manufacturer's instructions. […] Bars represent Spot forming units of 10^6 splenocytes with subtracted background mean SFU±SEM in each group. Each group consists of five mice. Data are representative of three separate experiments.
Experimental protocol: Spleens from vaccinated mice were removed and pooled for analysis of cellular immune responses. The protocol for vaccination was identical to the protocol described in Example 2. Cells were grown in RPMI 1640 supplemented with 10% fetal calf serum, 100 U/ml of penicillin, 50 μg/ml of streptomycin, 5×10^−5 M 2-mercaptoethanol and 1 mM L-glutamine (GIBCO BRL, Karlsruhe, Germany) and maintained at 37° C. in a humidified 5% CO2 atmosphere. Lymph node and spleen cell suspensions were adjusted to 5×10^6 cells/ml in complete medium, cells were seeded with 100 μl per well in a flat-bottomed 96-well microtiter plate (Nunc) and plates were incubated for 4 days in the presence of different concentrations of soluble β-Gal.
Splenocytes of mice immunized by the i.n. (FIG. 12) and s.c. (FIG. 13) route were collected and cultured with different concentrations of the antigen. A total of 5×10^6 cells/ml spleen cells were cultured with 2 μg/ml of the MHC cI.I restricted β-Gal peptide (IFNγ) for 24 h and the β-Gal-Protein (IL-2 and 4) for 48 h. IFNγ producing CD8+ T cells were analyzed using BD Elispot kit according to the manufacturer's instructions. […] Bars represent Spot forming units of 10^6 splenocytes with subtracted background mean SFU±SE in each group. Each group consists of five mice. Data are representative of three separate experiments.

[2] = tested on: β-Gal-specific mucosal S-IgA; assay: β-Gal-specific secretory IgA in bronchial alveolar and vaginal lavages after i.n. immunisation; format: in vivo, Balb/c mice; details: for expression of β-Gal-specific S-IgA titers (lavage not named, FIG. 6): 20 up to 30 μg glycolipid, probably vaginal lavage
Method: Co-administration of β-Gal with 10 μg glycolipids 1, 5 and 6 induced β-Gal-specific mucosal S-IgA responses in Balb/c mice. Balb/c mice were immunized by the i.n. or s.c. route with β-Gal alone or together with glycolipids 1, 5 and 6 three times at 2-wk intervals. 10 days after the final immunization, the immunized mice were sacrificed. β-Gal-specific S-IgA titers were determined in vaginal lavage (VL) and Bronchial alveolar lavage (BAL) of mice immunized with β-Gal co-administered with glycolipids 1, 5 and 6 by the intranasal route. […] Bars represent mean Ab titer or amount±SE in each group. Each group consists of five mice. Data are representative of three separate experiments.
Co-administration of β-Gal with 20 up to 30 μg glycolipids 5 and 6 induced β-Gal-specific mucosal S-IgA responses in Balb/c mice. Balb/c mice were immunized by the i.n. or s.c. route with β-Gal alone or together with glycolipids 5 and 6 three times at 2-wk intervals. 10 days after the final immunization, the immunized mice were sacrificed. β-Gal-specific S-IgA titers were determined in vaginal lavage (VL) and Bronchial alveolar lavage (BAL) of mice immunized with β-Gal co-administered with glycolipids 5 and 6 by the intranasal route.
Experimental protocol: at day 38, mice were sacrificed and the final sampling was performed. Vaginal and lung lavages were obtained by flushing the organs with 1 ml of PBS supplemented with 50 mM EDTA, 0.1% BSA, and 10 mM PMSF. Lavages were then centrifuged to remove debris (10 min at 3000×g), and supernatant fluids were stored at −20° C. To determine the concentration of total IgA present in the lung and vaginal lavages, serial dilutions of the corresponding samples were incubated in microtiter plates that were previously coated with goat anti-mouse IgA (Sigma Chemie), as capture antibodies (100 μl/well). Serial dilutions of purified mouse IgA (Sigma Chemie) were used to generate a standard curve.

[3] = 10 μg glycolipid + 30 μg β-Gal, day 38
[4] = 20 up to 30 μg glycolipid + 30 μg β-Gal, day 38

Compound	spot forming units (SFU) secreting IFNγ [1]	spot forming units (SFU) secreting IFNγ / cytokine secretion [1]	secretion of IFNγ, IL-2 and IL-4 (SFU) vs β-Gal alone [1]	secretion of IFNγ, IL-2 and IL-4 (SFU) vs control animals [1]	β-Galactosidase-specific sIgA in vaginal lavages [2, 3]	β-Galactosidase-specific sIgA titer in bronchial alveolar lavage (BAL) [2, 3]	β-Galactosidase-specific sIgA titer in bronchial alveolar lavage (BAL) [2, 4]	expression of β-Gal-specific S-IgA titers (lavage not named, FIG. 6) [2]
CCCCCCCCCCCCCCOCC(COCCCCCCCCCCCCCC)O[C@@H]1O[C@H](CO)[C@@H](O[C@H]2O[C@H](CO)[C@@H](O)[C@H](O)[C@H]2O)[C@H](O)[C@H]1O [glycolipid 5, 1,3-Di-O-tetradecyl-2-O-[4′-O-(α-D-glucopyranosyl)-β-D-glucopyranosyl]-sn-glycerol]	enhanced expression	enhanced expression	only weak enhanced secretion	only a minor effect	enhanced	> 1/130 and significant increase	> 1/170 and significant increase	comparable with titer of the control groups
CCCCCCCCCCCCCCOCC(COCCCCCCCCCCCCCC)O[C@@H]1O[C@H](CO[C@H]2O[C@H](CO)[C@H](O)[C@H](O)[C@H]2O)[C@@H](O)[C@H](O)[C@H]1O [glycolipid 6, 1,3-di-O-tetradecyl-2-O-[6′-O-(α-D-galactopyranosyl)-β-D-glucopyranosyl]-sn-glycerol]	only a weak secretion	reduced cytokine secretion	only weak enhanced secretion	only a minor effect		below the detection level	comparable sIgA titers in BAL; also recorded: significant increase	comparable with titer of the control groups
CCCCCCCC/C=C\CCCCCCCCOCC(COCCCCCCCC/C=C\CCCCCCCC)O[C@@H]1O[C@H](CO)[C@@H](O[C@H]2O[C@H](CO)[C@@H](O)[C@H](O)[C@H]2O)[C@H](O)[C@H]1O (relative stereo) [glycolipid 1, 1,3-Di-O[cis-9-octadecenyl]-2-O-[4′-O-(α-D-glycopyranosyl)-β-D-glycopyranosyl]-sn-glycerol]	only a weak secretion		only weak enhanced secretion			below the detection level		
